Measured values taken from patent publication US20100240604A1, “PROTECTED NUCLEOTIDE ANALOGS” (Alios BioPharma, Inc., priority 2009, published 2010).

Experiments:
[1] = Cytotoxicity by neutral red dye uptake assay in the HCV replicon cultures; type: cell-based; conditions: human; 2-fold depression of neutral red dye uptake relative to untreated cultures; daily treatment for three days, assessed at 72 hours
Description: (§1) Antiviral activity of the test compounds was assessed (Okuse, et al., Antivir. Res. (2005) 65:23) in the stably HCV RNA-replicating cell line, AVA5 (genotype 1b, subgenomic replicon, Blight, et al., Sci. (2000) 290:1972). Compounds were added to dividing cultures daily for three days. Cultures generally start the assay at 30-50% confluence and reach confluence during the last day of treatment. Intracellular HCV RNA levels and cytotoxicity were assessed 72 hours after treatment.
(§2) Quadruplicate cultures for HCV RNA levels and cytoxicity (on 96-well plates) were used. A total of 12 untreated control cultures, and triplicate cultures treated with α-interferon (concentrations of: 10 IU/mL, 3.3 IU/mL, 1.1 IU/mL and 0.37 IU/mL) and 2′C-Me-C (concentrations of: 30 μM, 10 μM, 3.3 μM and 1.1 μM) served as assay controls.
(§3) Intracellular HCV RNA levels were measured using a conventional blot hybridization method, in which HCV RNA levels are normalized to the levels of β-actin RNA in each individual culture (Okuse, et al., Antivir. Res. (2005) 65:23). Cytotoxicity was measured using an established neutral red dye uptake assay (Korba and Gerin, Antivir. Res. (1992) 19:55; Okuse, et al., Antivir. Res. (2005) 65:23). HCV RNA levels in the treated cultures are expressed as a percentage of the mean levels of RNA detected in untreated cultures. The absorbance of the internalized dye at […] (A510) was used for quantitative analysis.
(§4) Compounds were dissolved in 100% tissue culture grade DMSO (Sigma, Inc.) at 10 mM. Aliquots of test compounds sufficient for one daily treatment were made in individual tubes and all material was stored at −20° C. For the test, the compounds were suspended into culture medium at room temperature, and immediately added to the cell cultures. Compounds were analyzed separately in two groups with separate assay controls. […]
(§5) Values presented (±standard deviations [S.D.]) were calculated by linear regression analysis using data combined from all treated cultures. S.D. was calculated using the standard error of regression generated from the linear regression analyses (QuattroPro™). EC50 and EC90, drug concentrations at which a 2-fold, or a 10-fold depression of HCV RNA (relative to the average levels in untreated cultures), respectively, were observed; CC50, drug concentrations at which a 2-fold depression of neutral red dye uptake (relative to the average levels in untreated cultures) were observed.

[2] = system: HCV RNA-replicating cell line, AVA5 (genotype 1b, subgenomic replicon); test: HCV replicon assay: intracellular HCV RNA levels by blot hybridization; type: cell-based, HCV genotype 1b; conditions: for EC50: 2-fold depression of HCV RNA relative to untreated cultures; for EC50 / EC90: normalized to β-actin RNA, daily treatment for three days, assessed at 72 hours; for EC90: 10-fold depression of HCV RNA relative to untreated cultures; for Antiviral activity (in words): results in Table 1
Description: as §1, §2, §3, §4, §5

[3] = system: AVA5 cell line; test: Cytotoxicity by neutral red dye uptake assay in the HCV replicon cultures; type: cell-based; conditions: 2-fold depression of neutral red dye uptake relative to untreated cultures; daily treatment for three days, assessed at 72 hours
Description: as §1, §2, §3, §4, §5

Row | SMILES | CC50 at 72 h [1] [µM] | EC50 ([2]; Hepatitis C virus, Ava5) [µM] | EC90 ([2]; Hepatitis C virus, Ava5) [µM] | Antiviral activity (in words) [2] | CC50 [3] [µM] | EC50 [2] [µM] | EC90 [2] [µM]
1 | COC(=O)[C@H](C)NP(=O)(OC[C@H]1O[C@@H](n2cnc(C(N)=O)n2)[C@@H](O)C1O)Oc1ccccc1 (stereo partly drawn) [Compound 9] | > 100 | > 100 | > 100 | inactive |  |  | 
2 | C[C@@]1(O)[C@H](O)[C@@H](CO)O[C@H]1n1ccc(N)nc1=O [Compound 12a, 2′-β-methylcytidine, reference compound] |  |  |  |  | > 100 | 1.6 | 5.9
3 | CCOC(=O)C(COC(C)=O)(COP(=O)(OC[C@H]1O[C@@H](n2cnc(C(N)=O)n2)C(O)C1O)OCC(COC(C)=O)(C(=O)OCC)C(=O)OCC)C(=O)OCC (stereo partly drawn) [Compound 11, Ribavirin 5′-bis[3-acetyloxy-2,2-bis(ethoxycarbonyl)propyl]phosphate] | 9.7 ± 0.2 | 1.6 ± 0.2 | 4.4 ± 0.4 | showed activity |  |  | 
4 | COC(=O)[C@H](C)NP(=O)(OC[C@H]1O[C@@H](n2ccc(N)nc2=O)[C@H](OC)[C@@H]1O)Oc1ccccc1 (stereo partly drawn) [Compound 13, 2′-O-Methylcytidine 5′-[O-phenyl-N-(S-2-methoxy-1-methyl-2-oxoethyl)]phosphoramidate] |  |  |  |  | > 100 | > 100 | > 100
5 | CCOC(=O)C(COC(C)=O)(COP(=O)(N[C@@H](C)C(=O)OC)OC[C@H]1O[C@@H](n2cnc(C(N)=O)n2)[C@H](O)[C@@H]1O)C(=O)OCC (stereo partly drawn) [Compound 10] |  |  |  | showed activity | > 100 | 8.7 | 54
